This passage reports IC50 results from patent US9862688B2, “Hydrophobically tagged janus kinase inhibitors and uses thereof” (Dana-Farber Cancer Institute, Inc., priority 2014, dated 2018).

Molecules are shown by their SMILES.

Assay [1] has as its target JAK3 (Homo sapiens (Human), UniProt P52333). Briefly: INVITROGEN Select Screening in vitro kinase activity assay. The note with it: enzymatic. The assay is classed as biochemical. From the text: The in vitro activity of the compounds described herein in inhibiting JAK3 and other kinases were obtained using an INVITROGEN Select Screening assay as known in the art.
Assay [2] deals with Ba/F3 JAK3. Briefly: Ba/F3 cell proliferation analysis (CellTiter-Glo), JAK3. The class given is cell-based, murine. The conditions noted are these: Ba/F3 cells, 72 hours at 37° C., cell viability. As to the method: (§1) Cell Proliferation Analysis
(§2) CellTiter-Glo® Luminescent cell viability assay (Promega) was used to assess cell survival following treatment with the compounds described herein. Cells were seeded into 384 well plates with the EL406 Combination Washer Dispenser (BioTek Instruments, Inc.), and the compounds were injected into the cells culture media with the JANUS Automated Workstation (PerkinElmer Inc.). Cells were treated with a series diluted inhibitors (20 to 0.04 μM) for 72 hours at 37° C. Luminescent measurement is performed using the 2104 Envision® Multilabel Reader (PerkinElmer Inc.). The cell lines employed include Ba/F3 (a murine interleukin-3 dependent pro-B cell line), NKL (a Natural Killer Cell Lymphoma (NKCL) cell line), CMK (an Acute Megakaryoblastic Leukemia (AMKL) cell line).

Assay [3] deals with Ba/F3 TYK2. The assay is described as follows: Ba/F3 cell proliferation analysis (CellTiter-Glo), TYK2. The class given is cell-based, murine. The note with it: Mus musculus, BaF3; Ba/F3 cells, 72 hours at 37° C., cell viability. The procedure:
as §1, §2

The test system of assay [4] is NKL (a Natural Killer Cell Lymphoma (NKCL) cell line). Briefly: Cancer cell line proliferation analysis (CellTiter-Glo), NKL. The class given is cell-based. The conditions noted are these: NKL cells, 72 hours at 37° C., cell viability, read-out: Cancer cell lines IC50 (nM) NKL. The procedure:
as §1, §2
(In general: Cellular ATP, detected with luciferase, serves as a proxy for viable cell number.)

Assay [5] relates to CMK (an Acute Megakaryoblastic Leukemia (AMKL) cell line). The assay is described as follows: Cancer cell line proliferation analysis (CellTiter-Glo), CMK. The class given is cell-based. The note with it: Homo sapiens; CMK cells, 72 hours at 37° C., cell viability; read-out: Cancer cell lines IC50 (nM) CMK. As to the method:
as §1, §2

Assay [6] concerns Ba/F3 JAK1. Briefly: Ba/F3 cell proliferation analysis (CellTiter-Glo), JAK1. The class given is cell-based, murine. The note with it: Mus musculus, BaF3; Ba/F3 cells, 72 hours at 37° C., cell viability. The procedure: as §1, §2
Assay [7] deals with Ba/F3 JAK2. Briefly: Ba/F3 cell proliferation analysis (CellTiter-Glo), JAK2. The assay is classed as cell-based, murine. The conditions noted are these: Mus musculus, BaF3; Ba/F3 cells, 72 hours at 37° C., cell viability. The procedure:
as §1
as §2, with “Luminescent measurement is performed using the 2104 Envision® Multilabel Reader (PerkinElmer Inc.).” left out

The subject of assay [8] is Ba/F3 ABL. Briefly: Ba/F3 cell proliferation analysis (CellTiter-Glo), ABL. The assay is classed as cell-based, murine. The conditions noted are these: Mus musculus, Ba/F3 cells, 72 hours at 37° C., cell viability. As to the method:
as §1
as §2, with “Luminescent measurement is performed using the 2104 Envision® Multilabel Reader (PerkinElmer Inc.).” left out

Sequence of JAK3 (P52333 whole entry): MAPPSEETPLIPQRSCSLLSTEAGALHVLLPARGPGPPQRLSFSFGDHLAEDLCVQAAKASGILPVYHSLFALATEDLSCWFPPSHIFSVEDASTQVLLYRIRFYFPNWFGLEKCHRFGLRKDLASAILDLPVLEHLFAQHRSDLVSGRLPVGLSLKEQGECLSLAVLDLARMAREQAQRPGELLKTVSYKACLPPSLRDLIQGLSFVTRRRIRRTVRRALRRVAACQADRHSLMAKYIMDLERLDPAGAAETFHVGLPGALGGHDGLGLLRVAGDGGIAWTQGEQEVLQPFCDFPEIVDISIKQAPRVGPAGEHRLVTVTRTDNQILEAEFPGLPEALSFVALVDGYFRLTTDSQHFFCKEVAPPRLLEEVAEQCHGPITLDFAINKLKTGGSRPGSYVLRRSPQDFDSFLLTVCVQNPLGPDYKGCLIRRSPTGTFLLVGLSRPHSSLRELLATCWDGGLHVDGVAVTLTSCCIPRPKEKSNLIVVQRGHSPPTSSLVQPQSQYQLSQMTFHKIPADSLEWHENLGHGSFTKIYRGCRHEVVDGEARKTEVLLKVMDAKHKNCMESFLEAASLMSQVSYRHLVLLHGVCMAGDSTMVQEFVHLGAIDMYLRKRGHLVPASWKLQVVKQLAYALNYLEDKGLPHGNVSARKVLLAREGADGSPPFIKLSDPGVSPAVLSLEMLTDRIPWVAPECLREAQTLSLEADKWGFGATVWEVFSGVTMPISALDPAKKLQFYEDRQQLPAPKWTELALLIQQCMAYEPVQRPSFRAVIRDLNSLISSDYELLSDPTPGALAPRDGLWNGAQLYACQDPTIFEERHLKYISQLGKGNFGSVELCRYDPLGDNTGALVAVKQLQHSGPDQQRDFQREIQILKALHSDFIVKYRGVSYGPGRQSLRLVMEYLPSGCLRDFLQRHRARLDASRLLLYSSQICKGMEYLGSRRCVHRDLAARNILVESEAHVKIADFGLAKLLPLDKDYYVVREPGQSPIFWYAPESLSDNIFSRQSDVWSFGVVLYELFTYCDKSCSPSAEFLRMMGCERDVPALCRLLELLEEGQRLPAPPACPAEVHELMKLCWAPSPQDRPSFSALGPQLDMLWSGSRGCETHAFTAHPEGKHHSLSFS

With `C=CC(=O)Nc1cccc(CNc2nc(Nc3ccc(N4CCN(CCCNC(=O)CC5[C@H]6C[C@@H]7C[C@@H](C[C@H]5C7)C6)CC4)cc3OC)ncc2Cl)c1` (stereo partly shown) [Compound 2], the IC50 (commonly the midpoint of a concentration-inhibition curve) was 45 nM in assay [1]; 382 nM in assay [2]; 45 nM in assay [2] (listed as compound 2); 1820 nM in assay [3]; 193 nM in assay [4]; 273 nM in assay [5].
On to `C=CC(=O)Nc1cccc(CNc2nc(Nc3ccc(N4CCN(CCCNC(=O)CC5[C@H]6C[C@@H]7C[C@@H](C[C@H]5C7)C6)CC4)cc3)ncc2Cl)c1` (stereo partly shown) [Compound 3], for which the IC50 in assay [1] stood at 12.8 nM; in assay [2] (Mus musculus, BaF3, 72 h), 72.7 nM; in assay [6] it was 1120 nM; in assay [7] it was 1220 nM; in assay [3] it was 542 nM; in assay [8] (BaF3), 2260 nM. Besides, the IC50 in assay [5] worked out at 490 nM.
Take `C=CC(=O)Nc1cccc(CNc2nc(Nc3ccc(N4CCN(CCCCNC(=O)CC5[C@H]6C[C@@H]7C[C@@H](C[C@H]5C7)C6)CC4)cc3)ncc2Cl)c1` (stereo partly shown) [Compound 4]: the IC50 worked out at 7.95 nM in assay [1]; 64.8 nM in assay [2] (Mus musculus, BaF3, 72 h); 252 nM in assay [6]; 372 nM in assay [3]; 623 nM in assay [8] (BaF3); 38 nM in assay [5].
Consider `C=CC(=O)Nc1cccc(CNc2nc(Nc3cnn(CCN4CCN(C(=O)CC5[C@H]6C[C@@H]7C[C@@H](C[C@H]5C7)C6)CC4)c3)ncc2Cl)c1` (stereo partly shown) [Compound 5], for which the IC50 in assay [1] turned out to be 4.9 nM; in assay [2] (Mus musculus, BaF3, 72 h), 94 nM; in assay [6] it was 1110 nM; in assay [3], 676 nM.
On to `C=CC(=O)Nc1cccc(CNc2nc(Nc3cnn(C4CCN(C(=O)CC5[C@H]6C[C@@H]7C[C@@H](C[C@H]5C7)C6)CC4)c3)ncc2Cl)c1` (stereo partly shown) [Compound 6], for which the IC50 in assay [1] was determined as 5.9 nM; in assay [2] (Mus musculus, BaF3, 72 h), 38 nM; in assay [6], 2080 nM; in assay [7], 3180 nM; in assay [8] (BaF3, 72 h, heading: Ba/F3 IC50 ABL) it was 3860 nM.
Take `C=CC(=O)Nc1cccc(CNc2nc(Nc3cnn(C4CCN(CCNC(=O)CC5[C@H]6C[C@@H]7C[C@@H](C[C@H]5C7)C6)CC4)c3)ncc2Cl)c1` (stereo partly shown) [Compound 7]: the IC50 was found to be 6.8 nM in assay [1]; 105 nM in assay [2] (Mus musculus, BaF3, 72 h); 954 nM in assay [6]; 1440 nM in assay [7]; 794 nM in assay [3]; 2280 nM in assay [8] (BaF3).
